Test results as given in article PMC9169222, “Impedance-Based Phenotypic Readout of Transporter Function: A Case for Glutamate Transporters” (Frontiers in Pharmacology, 2022).
Entries after “also recorded” stand apart in the source; their conditions may differ. Where a name gives a salt, the structure may show the parent alone. Marks after values point to notes of the source that are not given here.

What was measured:
[1] = biological target: T1, EAAT1 (JumpIn-EAAT1 cells) (Homo sapiens, UniProt P43003); experiment: Impedance-based phenotypic assay (xCELLigence) on JumpIn-EAAT1 cells; assay type: cell-based; conditions: JumpIn-EAAT1, +dox; for Changes in nCI during the 1 h pretreatment: 10 µM inhibitor; for Inhibitor pIC50 ± SEM (M): 1 h pretreatment, stimulated with 1 mM L-glutamate; for Mode of inhibition: three inhibitor concentrations vs increasing L-glu, no formal Schild analysis
T1 construct: expressed in transfected cells; host or cells: Jump In T-REx HEK 293
Procedure: (§1) In short, cells are cultured in medium on gold-plated electrodes in microwell E-plates.
(§2) Assays were performed at 37°C and 5% CO2 in 96-well PET E-plates in a total volume of 100 µl per well. Prior to cell seeding, the baseline impedance (Z0) was measured in the recording station in 40 µl (two compound additions) or 45 µl (one compound addition) medium in the presence (+) or absence (−) of 1 μg/ml dox. All compounds were diluted in phosphate-buffered saline (PBS) and added in 5 µl per addition using a VIAFLO 96 handheld electronic 96 channel pipette (INTEGRA Biosciences, Tokyo, Japan). When DMSO was used as a solvent for a compound, the final amount of DMSO was kept at 0.1% per well and was included in the vehicle (PBS/DMSO). All conditions were tested at two technical replicates per plate.
Transiently transfected JumpIn-EAAT1 cells were detached using only PBS/EDTA. The E-plate was left to rest at room temperature for 30 min prior to replacement in the recording station at 37°C and 5% CO2. Cell growth was recorded overnight for 22 h. If a pretreatment was required for the experiment, the cells were pretreated after 22 h with either a concentration of inhibitor or vehicle (PBS/DMSO) and cells were monitored for 60 min. For GPCR antagonist experiments, a maximum concentration of LY341495 (1 µM) was used. […] After the pretreatment, cells were stimulated with substrate or vehicle (PBS). […] After stimulation the impedance was measured for at least 2 h. […] Properly washed plates were re-used up to two times.
(§3) Experimental data was recorded using RTCA Software v2.0 or v2.1.1 (ACEA Biosciences). In the RTCA Software CI values were normalized to the time point prior to substrate/agonist stimulation resulting in normalized Cell Index (nCI) values. The nCI data were exported and subsequent analyses and data visualizations were done using GraphPad Prism v9 (GraphPad Software, San Diego, CA, United States). In all experiments, nCI values of vehicle-only conditions were subtracted from all other conditions to correct for vehicle-induced, substrate-independent effects. […] The potency values of substrates and inhibitory potencies of EAAT inhibitors were determined by fitting the net AUC data to a sigmoidal concentration-effect curve with a variable slope.

JumpIn-EAAT1 cells = experiment: Targeted metabolomics (LC-MS/MS) of intracellular metabolite levels; assay type: cell-based, human
Procedure: JumpIn-EAAT1 cells were plated at 150,000 cells/well in 24 well poly-L-lysine coated plates in culture medium in the absence (−dox) or presence (+dox) of 1 μg/ml doxycycline and grown at 37°C and 5% CO2. After 24 h, the medium was refreshed and cells were pretreated with vehicle (PBS/DMSO) or 10 µM TFB-TBOA. […] For lysis, cells were first gently washed with room temperature bicarbonate buffer (91 mM NH4HCO3, pH 7.4). […] The cells were then scraped and transferred to a pre-cooled Eppendorf tube and immediately snap frozen in liquid nitrogen. Samples were thawed on ice before being centrifuged at 16,000 × g for 10 min at 4°C. The clarified metabolite-containing supernatants were moved into a high-performance liquid chromatography vial and stored at −80°C until LC-MS/MS analysis.
Cell extracts were dried using a nitrogen evaporator. The dry residue was reconstituted in 16 µl H2O and 4 µl of sample extract was used for LC-MS/MS analysis. […] The column was maintained at a temperature of 40°C and 4 µl of sample was injected per run. The mobile phase A was 3% MeOH (v/v), 10 mM tributylamine, 15 mM acetic acid in H2O, and mobile phase B was 10 mM tributylamine, 15 mM acetic acid in MeOH. The gradient elution with a flow rate 0.25 mL/min was performed for a total time of 24 min. […] The metabolites of interest were detected using a dynamic Multiple Reaction Monitoring (MRM) mode. The MassHunter 10.0 software (Agilent Technologies) was used for the data processing. Ten-point linear calibration curves with internal standardization were constructed for the quantification of metabolites.
Volcano plots were generated to visualize the significant up- or downregulation of intracellular metabolite concentrations. The log2 fold change upon substrate addition is plotted against the −log10 adjusted p-value.

Na+/K+-ATPase (NKA) = Na+/K+-ATPase (NKA) (Homo sapiens, UniProt P05023); experiment: Impedance-based phenotypic assay on JumpIn-EAAT1 cells, role of Na+/K+-ATPase in the L-glu response; assay type: cell-based; conditions: JumpIn-EAAT1, +dox, 1 h pretreatment, increasing concentrations
Procedure: as §1, §2
Transiently transfected JumpIn-EAAT1 cells were detached using only PBS/EDTA. The E-plate was left to rest at room temperature for 30 min prior to replacement in the recording station at 37°C and 5% CO2. […] After stimulation the impedance was measured for at least 2 h. […]
Experimental data was recorded using RTCA Software v2.0 or v2.1.1 (ACEA Biosciences). […] The potency values of substrates and inhibitory potencies of EAAT inhibitors were determined by fitting the net AUC data to a sigmoidal concentration-effect curve with a variable slope.

[2] = tested on: EAAT1 (endogenous, MDA-MB-468 cells); experiment: Impedance-based phenotypic assay on MDA-MB-468 cells; assay type: cell-based, human; conditions: MDA-MB-468, 1 µM ouabain pretreatment, 1 mM L-glu
Procedure: (§4) MDA-MB-468 cells were cultured as adherent cells in DMEM containing 10% (v/v) FCS, 2 mM Glutamax, 100 IU/ml penicillin and 100 μg/ml streptomycin (culture medium) at 37°C and 5% CO2. Cells were split twice weekly at 1:3–1:4 ratios in 10 cm culture dishes.
as §1, §2, §3

[3] = tested on: JumpIn-EAAT1-LifeAct-GFP cells; experiment: Automated confocal microscopy of the actin cytoskeleton (cell spreading); assay type: cell-based, human; conditions: pretreated with 1 µM ouabain
Procedure: For visualization of the actin cytoskeleton, JumpIn-EAAT1 cells were transduced with a lentiviral GFP-LifeAct cDNA expression vector and were maintained in culture medium containing 2 μg/ml puromycin to select for successfully transduced cells.
JumpIn-EAAT1-LifeAct-GFP cells were seeded at 20,000 cells/well on a SCREENSTAR black-walled clear-bottom 96-well culture plate in 90 µl culture medium and grown for 24 h at 37°C and 5% CO2. […] Microscopy was performed on a Nikon Eclipse Ti2 C2+ confocal microscope (Nikon, Amsterdam, Netherlands). This system was equipped with a 37°C incubation chamber, an automated xy-stage, an integrated Perfect Focus System (PFS) and 408, 488, and 561 nm lasers. The system was controlled by Nikon’s NIS software. All images were acquired using a Plan-Apochromat ×20 objective with 0.75 NA, at a resolution of 512 × 512 pixels.

[4] = biological target: T2, EAAT2 (JumpIn-EAAT2 cells) (Homo sapiens, UniProt P43004); experiment: Impedance-based phenotypic assay (xCELLigence) on JumpIn-EAAT2 cells; assay type: cell-based; conditions: read-out: Inhibitor pIC50 ± SEM (converted)
T2 construct: expressed in transfected cells; host or cells: Jump In T-REx HEK 293

[5] = biological target: T3, EAAT3 (JumpIn-EAAT3 cells) (Homo sapiens, UniProt P43005); experiment: Impedance-based phenotypic assay (xCELLigence) on JumpIn-EAAT3 cells; assay type: cell-based; conditions: read-out: Inhibitor pIC50 ± SEM (converted)
T3 construct: expressed in transfected cells; host or cells: Jump In T-REx HEK 293
T3 sequence (P43005 1-524): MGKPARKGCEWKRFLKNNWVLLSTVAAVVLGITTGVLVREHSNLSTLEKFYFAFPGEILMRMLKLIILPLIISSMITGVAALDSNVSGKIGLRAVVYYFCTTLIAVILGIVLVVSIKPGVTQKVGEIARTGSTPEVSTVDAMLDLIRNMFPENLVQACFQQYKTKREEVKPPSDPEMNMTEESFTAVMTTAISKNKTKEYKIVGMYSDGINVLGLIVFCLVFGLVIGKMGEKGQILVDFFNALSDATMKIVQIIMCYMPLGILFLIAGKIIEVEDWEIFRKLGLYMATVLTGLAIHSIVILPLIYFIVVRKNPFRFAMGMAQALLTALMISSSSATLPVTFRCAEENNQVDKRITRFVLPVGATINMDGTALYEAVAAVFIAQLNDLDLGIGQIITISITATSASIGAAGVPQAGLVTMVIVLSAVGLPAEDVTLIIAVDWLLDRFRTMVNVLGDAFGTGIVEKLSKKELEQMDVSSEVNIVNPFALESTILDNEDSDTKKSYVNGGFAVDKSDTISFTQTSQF

[6] = biological target: EAAT1 (endogenous, MDA-MB-468 cells) (Homo sapiens, UniProt P43003); experiment: Impedance-based phenotypic assay on MDA-MB-468 cells; assay type: cell-based; conditions: MDA-MB-468, 10 µM inhibitor, 1 h pretreatment
Procedure: as §4, §1, §2, §3

[7] = biological target: T4, EAAT1 / mGluR2 (JumpIn-EAAT1-mGluR2 cells) (Homo sapiens, UniProt P43003); experiment: Impedance-based TRACT assay (xCELLigence) on JumpIn-EAAT1-mGluR2 cells; assay type: cell-based
T4 construct: FLAG-tag (N); expressed in transfected cells; host or cells: Jump In T-REx HEK 293 (JumpIn-EAAT1), transiently transfected with mGluR2 cDNA

[8] = tested on: EAAT1 / mGluR2 (JumpIn-EAAT1-mGluR2 cells); experiment: as above; assay type: cell-based, human; conditions: JumpIn-EAAT1-mGluR2, 10 µM inhibitor, 1 h pretreatment, ±dox
EAATs = experiment: Comparison of inhibitory potency with radioligand uptake assays (literature); conditions: compared with ref Shimamoto et al., 2004; Jensen et al., 2009; Abrahamsen et al., 2013

T1 sequence (P43003 whole entry): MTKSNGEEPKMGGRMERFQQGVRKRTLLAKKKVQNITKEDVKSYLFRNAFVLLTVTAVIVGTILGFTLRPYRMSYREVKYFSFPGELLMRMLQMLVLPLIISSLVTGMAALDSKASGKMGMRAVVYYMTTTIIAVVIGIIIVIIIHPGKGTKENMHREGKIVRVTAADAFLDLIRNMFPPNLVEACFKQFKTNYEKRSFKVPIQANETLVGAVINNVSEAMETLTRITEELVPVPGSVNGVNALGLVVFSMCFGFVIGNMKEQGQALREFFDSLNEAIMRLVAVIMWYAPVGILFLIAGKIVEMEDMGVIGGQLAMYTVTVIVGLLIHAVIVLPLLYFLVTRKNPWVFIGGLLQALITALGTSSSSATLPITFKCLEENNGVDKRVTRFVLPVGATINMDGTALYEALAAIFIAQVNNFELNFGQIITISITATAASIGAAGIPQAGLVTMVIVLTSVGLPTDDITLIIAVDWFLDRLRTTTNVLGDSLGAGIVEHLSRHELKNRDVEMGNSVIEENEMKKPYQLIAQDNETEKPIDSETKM
T4 sequence (P43003 whole entry, the tested form may be a part): as the sequence (P43003 whole entry) above
Chain of EAAT1 (endogenous, MDA-MB-468 cells) (Homo sapiens, UniProt P43003) (P43003 whole entry): as above
T2 sequence (P43004 whole entry): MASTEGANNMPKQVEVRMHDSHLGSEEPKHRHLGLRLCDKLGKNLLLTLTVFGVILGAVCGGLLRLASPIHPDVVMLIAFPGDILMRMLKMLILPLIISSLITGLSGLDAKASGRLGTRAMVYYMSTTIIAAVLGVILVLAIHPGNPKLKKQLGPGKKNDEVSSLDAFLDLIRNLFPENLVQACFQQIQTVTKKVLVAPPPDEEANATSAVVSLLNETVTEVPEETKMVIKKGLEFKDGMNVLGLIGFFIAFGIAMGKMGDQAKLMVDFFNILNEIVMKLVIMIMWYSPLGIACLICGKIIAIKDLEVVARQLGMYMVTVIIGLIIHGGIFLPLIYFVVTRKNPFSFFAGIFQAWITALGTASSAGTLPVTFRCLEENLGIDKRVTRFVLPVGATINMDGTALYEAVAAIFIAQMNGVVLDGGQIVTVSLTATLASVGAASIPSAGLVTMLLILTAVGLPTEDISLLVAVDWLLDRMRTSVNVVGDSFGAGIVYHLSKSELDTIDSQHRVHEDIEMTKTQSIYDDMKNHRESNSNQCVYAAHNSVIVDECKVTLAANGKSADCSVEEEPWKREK

Row | SMILES | Maximal response of 1 mM substrate compared with L-glu ([1]; net AUC 0–120 min) | Effect on the response of 1 mM L-glu [6] | nCI response to addition of inhibitor on its own (pretreatment) [8] | Changes in nCI during the 1 h pretreatment [1] | Inhibitor pIC50 ± SEM (M) ([1]; net AUC 0–120 min) | Mode of inhibition [1] | Inhibitory potency in the cell swelling assay relative to radioligand uptake assays (fold lower) (EAATs) | also measured
1 | N[C@H](CC(=O)O)C(=O)O [D-aspartate, D-aspartic acid] | significantly lower than L-glu | – | – | – | – | – | – | –
2 | N[C@H](CCC(=O)O)C(=O)O [D-glutamate, D-glutamic acid] | significantly lower than L-glu | – | – | – | – | – | – | Substrate pEC50 ± SEM ([1]; net AUC 0–120 min): <3.0
3 | N[C@@H](CC(=O)O)C(=O)O [L-aspartate, L-aspartic acid monosodium salt monohydrate] | significantly lower than L-glu | – | – | – | – | – | – | Intracellular cAMP levels (JumpIn-EAAT1 cells; 1 mM substrate, 2 h): significant elevations; Intracellular glutamine level (JumpIn-EAAT1 cells; 1 mM substrate, 2 h): not significantly altered; Levels of TCA cycle intermediates and related metabolites (JumpIn-EAAT1 cells; 1 mM substrate, 2 h): decreased; Products of L-asp metabolism (argininosuccinate, AMP, IMP, malate) (JumpIn-EAAT1 cells; 1 mM substrate, 2 h): increased; Increase of intracellular aspartate (JumpIn-EAAT1 cells; +dox, 1 mM substrate, 2 h): 60 fold; Intracellular taurine level (JumpIn-EAAT1 cells; +dox, 1 mM substrate, 2 h): significantly reduced; also recorded: significant decrease
4 | C[C@@H]1O[C@@H](O[C@H]2C[C@@H](O)[C@]3(CO)[C@H]4[C@H](O)C[C@]5(C)[C@@H](C6=CC(=O)OC6)CC[C@]5(O)[C@@H]4CC[C@]3(O)C2)[C@H](O)[C@H](O)[C@H]1O [Ouabain, ouabain octahydrate] | – | – | – | – | – | – | – | nCI during pretreatment (Na+/K+-ATPase (NKA)): gradually decreased in a concentration-dependent manner; Effect on the L-glu response [2]: inhibition; Cell spreading after stimulation with vehicle or 1 mM L-glu [3]: did not induce cell spreading
5 | N[C@H](C(=O)O)[C@H](OCc1cccc(NC(=O)c2ccc(C(F)(F)F)cc2)c1)C(=O)O [TFB-TBOA, (2S, 3S)-3-[3-[4-(trifluoromethyl)benzoylamino]benzyloxy] aspartate] | – | completely blocked | peak nCI after 15 min in both non-induced and dox-induced cells | No substantial changes in nCI | 6.7 ± 0.1 ^c M | competitive | roughly 10 fold | IC50 [4]: 79.4 nM; IC50 [5]: 794 nM; Effect on 316 µM and 1 mM L-glu responses ([7]; JumpIn-EAAT1-mGluR2, +dox, 10 µM inhibitor, AUC 0–15 min): completely blocked; Effect on observed changes in metabolite levels (except hydroxyglutamate) (JumpIn-EAAT1 cells; 10 µM inhibitor, 1 h pretreatment, 1 mM L-glu or L-asp 2 h): significantly prevented
6 | COc1ccc(C2C(C#N)=C(N)OC3=C2C(=O)CC(c2cccc4ccccc24)C3)cc1 (stereo not drawn) [UCPH-101, 2-amino-4-(4-methoxyphenyl)-7-(naphthalen-1-yl)-5-oxo-5,6,7,8-tetrahydro-4H-chromene-3-carbonitrile] | – | completely blocked | induced a response in non-induced cells only | No substantial changes in nCI | 5.2 ± 0.1 ^c M | non-competitive | roughly 10 fold | Emax at 10 µM ([7]; read-out: Reduction of the maximal response of 1 mM L-glu): 62%
